Results as given in the supplement of paper PMC4862054.

What was measured:
Settings in all cases: incubation time: 72 h
BT-474 [1] = experiment: drug sensitivity score (DSS), CellTox Green (DSS (AUC-based score)); higher = stronger drug effect (viability inhibition or cytotoxicity); extreme values may be limits of the assay
In short: (§1)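 Each compound occupied 5 concentrations in 10-fold steps over its own 10,000-fold range in 384-well plates, into which breast cancer cell lines were seeded as 20 µl suspension. Following 72 h of incubation, CellTox Green fluorescence (485/520 nm) was measured, and CellTiter-Glo luminescence was measured after 10 min at room temperature. Plates were individually normalised to 0.1 % DMSO and a positive kill control. From the area under the fitted dose-response curve, a drug sensitivity score was calculated.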

MDA-MB-468 [2] = experiment: as above
In short: as §1

MCF-10A [3] = experiment: as above
In short: as §1

MDA-MB-453 [4] = experiment: as above
In short: as §1

BT-549 = experiment: as above
In short: as §1

HDQ-P1 = experiment: as above
In short: as §1

MFM-223 [5] = experiment: as above
In short: as §1

HCC1599 = experiment: as above
In short: as §1

CAL-120 [6] = experiment: as above
In short: as §1

DU-4475 = experiment: as above
In short: as §1

CAL-148 [7] = experiment: as above
In short: as §1

MDA-MB-436 = experiment: as above
In short: as §1

CAL-51 = experiment: as above
In short: as §1

CAL-85-1 = experiment: as above
In short: as §1

HCC1143 = experiment: as above
In short: as §1

BT-474 [8] = experiment: drug sensitivity score (DSS), CellTiter-Glo (DSS (AUC-based score)); higher = stronger drug effect (viability inhibition or cytotoxicity); extreme values may be limits of the assay
In short: as §1

MDA-MB-468 [9] = experiment: as above
In short: as §1

MCF-10A [10] = experiment: as above
In short: as §1

MDA-MB-453 [11] = experiment: as above
In short: as §1

MFM-223 [12] = experiment: as above
In short: as §1

CAL-120 [13] = experiment: as above
In short: as §1

CAL-148 [14] = experiment: as above
In short: as §1

HCC1937 = experiment: as above
In short: as §1

MDA-MB-231 = experiment: as above
In short: as §1

| SMILES | drug sensitivity score (BT-474 [1]) | drug sensitivity score (MDA-MB-468 [2]) | drug sensitivity score (MCF-10A [3]) | drug sensitivity score (MDA-MB-453 [4]) | drug sensitivity score (BT-549) | drug sensitivity score (HDQ-P1) | drug sensitivity score (MFM-223 [5]) | drug sensitivity score (HCC1599) | drug sensitivity score (CAL-120 [6]) | drug sensitivity score (DU-4475) | drug sensitivity score (CAL-148 [7]) | drug sensitivity score (MDA-MB-436) | drug sensitivity score (CAL-51) | drug sensitivity score (CAL-85-1) | drug sensitivity score (HCC1143) | drug sensitivity score (BT-474 [8]) | drug sensitivity score (MDA-MB-468 [9]) | drug sensitivity score (MCF-10A [10]) | drug sensitivity score (MDA-MB-453 [11]) | drug sensitivity score (MFM-223 [12]) | drug sensitivity score (CAL-120 [13]) | drug sensitivity score (CAL-148 [14]) | drug sensitivity score (HCC1937) | drug sensitivity score (MDA-MB-231) |
| --- | --- | --- | --- | --- | --- | --- | --- | --- | --- | --- | --- | --- | --- | --- | --- | --- | --- | --- | --- | --- | --- | --- | --- | --- |
| O=C(c1ccc(C(=O)N2CCC(N3CCCC3)CC2)c(Nc2ccccc2)c1)N1CCC(N2CCCC2)CC1 [UNC1215] | 0 | 0 | 0 | 0 | 0 | 0 | 0 | 0 | 0 | 0 | 0 | 0 | 0 | 0 | 0.868 | 0 | 0 | 0 | 0 | 0 | 0 | 0 | 0 | 0 |
| C[C@]1(c2nc3c(C(N)=O)cccc3[nH]2)CCCN1 [Veliparib] | 0 | 0 | 0 | 0 | 0 | 0 | 0 | 0 | 0 | 0 | 2.57 | 0 | 0 | 0.454 | 0 | 0.587 | 0 | 0 | 0 | 0 | 0 | 0 | 0 | 0 |
| CC[C@]1(O)C[C@@H]2CN(CCc3c([nH]c4ccccc34)[C@@](C(=O)OC)(c3cc4c(cc3OC)N(C)[C@H]3[C@@](O)(C(=O)OC)[C@H](OC(C)=O)[C@]5(CC)C=CCN6CC[C@]43[C@@H]65)C2)C1 [Vinblastine] | 8.39 | 12.8 | 12.5 | 0 | 10.2 | 0 | 12.2 | 2.86 | 3.49 | 0 | 0 | 0 | 22.3 | 6.07 | 9.2 | 14.3 | 21.1 | 10.9 | 13.1 | 13 | 14.2 | 13 | 9.45 | 16.2 |
| CS(=O)(=O)c1ccc(C(=O)Nc2ccc(Cl)c(-c3ccccn3)c2)c(Cl)c1 [Vismodegib] | 0 | 0 | 0 | 0 | 0 | 0 | 0 | 0 | 0 | 0 | 0 | 0 | 0 | 0 | 0 | 0 | 0 | 0 | 0 | 0 | 0 | 0 | 0 | 0 |
